We go through 12 molecules from ChEMBL document CHEMBL3124906 (J Nat Prod, 2014).

Calls of active or inactive are those of the source. The calls are words filed in the database; no cut-off is given here. Where only a bound is given, the exact number is not on record here.

Data set [1] relates to Influenza A virus. The data set can be described thus: Antiviral activity against Influenza A virus (A/Hong Kong/1/1968(H3N2)) infected in MDCK cells assessed as inhibition of virus-induced cytopathic effect at 50 uM after 48 hrs. Type of data set: functional. As to conditions: for inhibition at 50 µM: Influenza A virus, MDCK, 48 h.
Data set [2] has as its system Influenza A virus. The data set can be described thus: Antiviral activity against Influenza A virus J/8178/09 infected in MDCK cells assessed as inhibition of virus-induced cytopathic effect at 50 uM after 48 hrs. Type of data set: functional. As to conditions: for inhibition at 50 µM: Influenza A virus, J/8178/09, MDCK, 48 h.
A short description of data set [3]: Inhibition of Clostridium perfringens neuraminidase by fluorescence based assay.
The nature of data set [4]: Induction of fluorescence at 100 uM relative to 4-methylumbelliferone. The class given is physicochemical.
Data set [5] can be described thus: Inhibition of Clostridium perfringens neuraminidase by chemiluminescence based assay.
Data set [6] in a line: Induction of fluorescence quenching at 100 uM relative to 4-methylumbelliferone. The class given is physicochemical.
Data set [7] is described as follows: Cytotoxicity against MDCK cells after 72 hrs. The class given is cell-based, Canis lupus familiaris. Conditions: dog.

As for `O=C1C[C@@H](c2ccc(O[C@@H]3O[C@H](CO)[C@@H](O)[C@H](O)[C@H]3O[C@H]3OC[C@@](O)(COC(=O)c4c[nH]c5ccccc45)[C@@H]3O)cc2)Oc2cc(O)ccc21`, the inhibition entry in the data set on Influenza A virus [1] and in the data set on Influenza A virus [2] was “inactive” throughout.
For the molecule `CCOC(=O)C1=C[C@@H](OC(CC)CC)[C@H](NC(C)=O)[C@@H](N)C1` [OSELTAMIVIR], the IC50 in data set [3] is 125 µM; in data set [5] it was 110000 nM. Moreover, the Activity in data set [4] came out at 0.05%; in data set [6] it was 12.8%.
`CC1(C)C=Cc2c(ccc([C@@H]3COc4c(ccc5c4C=CC(C)(C)O5)C3)c2O)O1` [HISPAGLABRIDIN B]: the values for the inhibition at 50 µM in the data set on Influenza A virus [1] and with Influenza A virus [2] were 31.2% and 48.4%, respectively. In addition, the concentration for half-maximal inhibition (IC50) was 4.23 µM in data set [3] and 170 nM in data set [5]. The Activity was 0.05% in data set [4] and 15.1% in data set [6]. Also, the midpoint of cytotoxicity in data set [7], the CC50 at 72 h, lay at 39.2 µM.
On to `CC1(C)C=Cc2c(ccc(-c3coc4cc(O)ccc4c3=O)c2O)O1` [GLABRONE], for which, in the data set with Influenza A virus [1], the inhibition at 50 µM was determined as 24.2%. For the same molecule, the IC50 was 11.7 µM in data set [3] and 70 nM in data set [5]. Moreover, the Activity in data set [4] came to 0.68%; in data set [6], 28.3%. Also, the CC50 at 72 h in data set [7] was determined as 90.8 µM.
On to `O=C1C[C@@H](c2ccc(O)cc2)Oc2cc(O[C@@H]3O[C@H](CO)[C@@H](O)[C@H](O)[C@H]3O)cc(O)c21` [PRUNIN], for which, in the data set with Influenza A virus [1], the inhibition result is “inactive”. Moreover, the “inhibition (INH)” value in the data set with Influenza A virus [2] was found to be 49.6%. The 50% cytotoxic concentration (CC50) at 72 h in data set [7] amounted to 126 µM.
For `O=C(/C=C/c1ccc(O)cc1)OC[C@]1(O)CO[C@H](O[C@H]2[C@H](Oc3ccc(/C=C/C(=O)c4ccc(O)cc4O)cc3)O[C@H](CO)[C@@H](O)[C@@H]2O)[C@H]1O`, the inhibition result with Influenza A virus [1] and in the data set with Influenza A virus [2] was “inactive” throughout.
As for `CC1(C)C=Cc2c(ccc3c2OCC(O)C3)O1` (configuration not stated), in the data set with Influenza A virus [1], the inhibition result is “inactive”. Also, the IC50 in data set [3] is 2.88 µM; in data set [5], 640 nM. The Activity in data set [4] is recorded as 0%; in data set [6], 15%. In the data set on Influenza A virus [2], the inhibition at 50 µM was determined as 36.1%. This molecule came in with a CC50 at 72 h in data set [7] of 336 µM.
As to `O=C1C[C@@H](c2ccc(O[C@@H]3O[C@H](CO)[C@@H](O)[C@H](O)[C@H]3O)cc2)Oc2cc(O)ccc21` [LIQUIRITIN], the inhibition result with Influenza A virus [1] and in the data set with Influenza A virus [2] was “inactive” each time. In data set [7], the CC50 at 72 h is > 239 µM.
Regarding `O=C1C[C@@H](c2ccc(O)cc2)Oc2cc(O)ccc21` [LIQUIRTIGENIN], the inhibition entry in the data set on Influenza A virus [1] and with Influenza A virus [2] was “inactive” throughout. Further, the half-maximal cytotoxic concentration (CC50) at 72 h in data set [7] was determined as 301 µM.
Regarding `CC(C)=CCc1c(O)ccc(C(=O)/C=C/c2cc(O)c3c(c2)C=CC(C)(C)O3)c1O`, the “inhibition (INH)” value came out at 48.1% in the data set on Influenza A virus [1] and 29.7% in the data set with Influenza A virus [2]. The same molecule gave a CC50 at 72 h in data set [7] of 135 µM.
With `COc1ccc(-c2coc3cc(O)ccc3c2=O)cc1` [FORMONONETIN], the IC50 in data set [3] turned out to be 13.6 µM; in data set [5] it was 340 nM. In addition, the Activity in data set [4] is given as 15.4%; in data set [6], -12.4%. Further, half-maximal cytotoxicity in data set [7] (CC50 at 72 h) was put at 123 µM.
Turning to `CC(C)=CCc1cc([C@@H]2CC(=O)c3ccc(O)c(CC=C(C)C)c3O2)ccc1O` [GLABROL], the inhibition entry in the data set on Influenza A virus [1] and with Influenza A virus [2] was “inactive” throughout. Also, the 50% inhibitory concentration (IC50) in data set [3] turned out to be 2.17 µM; in data set [5], 130 nM. In addition, the Activity in data set [4] came to 1.18%; in data set [6] it was 37.4%. Moreover, in data set [7], the midpoint of cytotoxicity, the CC50 at 72 h, lay at 25.4 µM.
